# Measured values from PMC12064818, “A general assay platform to study protein pharmacology using ligand-dependent structural dynamics” (Nature Communications, 2025).
# Biological target: firefly luciferase (FLuc) (Photinus pyralis, UniProt P08659)
# Test: Thermal shift profiles (Thermofluor assay), FLuc;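 for Thermofluor FLuc, No ATP: normalized first derivative of fluorescence (dF/dT) at the stated temperature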
# Assay type: binding
# Parameters: unit of the concentration uncertain
# Details: compound 100 (unit uncertain); for Thermofluor FLuc, ATP: ATP (2 (unit uncertain))
# Sequence of firefly luciferase (FLuc) (P08659 whole entry): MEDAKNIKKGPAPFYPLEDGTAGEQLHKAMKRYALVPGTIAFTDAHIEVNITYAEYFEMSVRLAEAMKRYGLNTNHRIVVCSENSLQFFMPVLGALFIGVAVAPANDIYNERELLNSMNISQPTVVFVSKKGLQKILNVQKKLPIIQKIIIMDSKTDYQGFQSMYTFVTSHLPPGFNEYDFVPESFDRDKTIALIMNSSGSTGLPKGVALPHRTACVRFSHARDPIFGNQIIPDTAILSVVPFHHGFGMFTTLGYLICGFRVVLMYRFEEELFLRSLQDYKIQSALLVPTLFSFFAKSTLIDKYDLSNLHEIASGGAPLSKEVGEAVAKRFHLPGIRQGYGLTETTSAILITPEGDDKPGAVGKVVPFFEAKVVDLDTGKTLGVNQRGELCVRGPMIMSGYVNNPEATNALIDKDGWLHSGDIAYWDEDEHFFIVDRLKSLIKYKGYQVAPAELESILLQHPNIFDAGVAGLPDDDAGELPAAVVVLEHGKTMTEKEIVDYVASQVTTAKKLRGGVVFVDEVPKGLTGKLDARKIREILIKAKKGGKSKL
compound,measurement,setting,value
COc1ccc(NC(=O)C2CCN(C(=O)c3ncn4c3COC(c3ccccc3)C4)CC2)cc1Cl (centres unmarked) [NCGC 00449919],"Thermofluor FLuc, No ATP",20.000 °C,0.250
same,"Thermofluor FLuc, ATP",20.000 °C,0.934
same,"Thermofluor FLuc, No ATP",20.993 °C,0.185
same,"Thermofluor FLuc, ATP",20.993 °C,0.955
same,"Thermofluor FLuc, No ATP",21.987 °C,0.201
same,"Thermofluor FLuc, ATP",21.987 °C,0.975
same,"Thermofluor FLuc, No ATP",22.980 °C,0.152
same,"Thermofluor FLuc, ATP",22.980 °C,0.992
same,"Thermofluor FLuc, No ATP",23.974 °C,0.098
same,"Thermofluor FLuc, ATP",23.974 °C,1
same,"Thermofluor FLuc, No ATP",24.967 °C,0.101
same,"Thermofluor FLuc, ATP",24.967 °C,0.999
same,"Thermofluor FLuc, No ATP",25.960 °C,0.104
same,"Thermofluor FLuc, ATP",25.960 °C,0.991
same,"Thermofluor FLuc, No ATP",26.954 °C,0.059
same,"Thermofluor FLuc, ATP",26.954 °C,0.977
same,"Thermofluor FLuc, No ATP",27.947 °C,0.054
same,"Thermofluor FLuc, ATP",27.947 °C,0.961
same,"Thermofluor FLuc, No ATP",28.940 °C,0.030
same,"Thermofluor FLuc, ATP",28.940 °C,0.943
same,"Thermofluor FLuc, No ATP",29.934 °C,0.043
same,"Thermofluor FLuc, ATP",29.934 °C,0.925
same,"Thermofluor FLuc, No ATP",30.927 °C,0.015
same,"Thermofluor FLuc, ATP",30.927 °C,0.906
same,"Thermofluor FLuc, No ATP",31.921 °C,0.031
same,"Thermofluor FLuc, ATP",31.921 °C,0.886
same,"Thermofluor FLuc, No ATP",32.914 °C,0.002
same,"Thermofluor FLuc, ATP",32.914 °C,0.862
same,"Thermofluor FLuc, No ATP",33.907 °C,0.008
same,"Thermofluor FLuc, ATP",33.907 °C,0.832
same,"Thermofluor FLuc, No ATP",34.901 °C,0.005
same,"Thermofluor FLuc, ATP",34.901 °C,0.793
same,"Thermofluor FLuc, No ATP",35.894 °C,0.014
same,"Thermofluor FLuc, ATP",35.894 °C,0.741
same,"Thermofluor FLuc, No ATP",36.887 °C,0.000
same,"Thermofluor FLuc, ATP",36.887 °C,0.675
same,"Thermofluor FLuc, No ATP",37.881 °C,0.036
same,"Thermofluor FLuc, ATP",37.881 °C,0.591
same,"Thermofluor FLuc, No ATP",38.874 °C,0.034
same,"Thermofluor FLuc, ATP",38.874 °C,0.492
same,"Thermofluor FLuc, No ATP",39.868 °C,0.075
same,"Thermofluor FLuc, ATP",39.868 °C,0.38
same,"Thermofluor FLuc, No ATP",40.861 °C,0.126
same,"Thermofluor FLuc, ATP",40.861 °C,0.264
same,"Thermofluor FLuc, No ATP",41.854 °C,0.197
same,"Thermofluor FLuc, ATP",41.854 °C,0.155
same,"Thermofluor FLuc, No ATP",42.848 °C,0.295
same,"Thermofluor FLuc, ATP",42.848 °C,0.067
same,"Thermofluor FLuc, No ATP",43.841 °C,0.412
same,"Thermofluor FLuc, ATP",43.841 °C,0.013
same,"Thermofluor FLuc, No ATP",44.835 °C,0.542
same,"Thermofluor FLuc, ATP",44.835 °C,0
same,"Thermofluor FLuc, No ATP",45.828 °C,0.677
same,"Thermofluor FLuc, ATP",45.828 °C,0.03
same,"Thermofluor FLuc, No ATP",46.821 °C,0.764
same,"Thermofluor FLuc, ATP",46.821 °C,0.099
same,"Thermofluor FLuc, No ATP",47.815 °C,0.849
same,"Thermofluor FLuc, ATP",47.815 °C,0.195
same,"Thermofluor FLuc, No ATP",48.808 °C,0.904
same,"Thermofluor FLuc, ATP",48.808 °C,0.306
same,"Thermofluor FLuc, No ATP",50.795 °C,0.949
same,"Thermofluor FLuc, ATP",50.795 °C,0.532
same,"Thermofluor FLuc, No ATP",51.788 °C,1.000
same,"Thermofluor FLuc, ATP",51.788 °C,0.632
same,"Thermofluor FLuc, ATP",52.782 °C,0.721
same,"Thermofluor FLuc, No ATP",53.775 °C,1.000
same,"Thermofluor FLuc, ATP",53.775 °C,0.796
same,"Thermofluor FLuc, No ATP",54.768 °C,0.991
same,"Thermofluor FLuc, ATP",54.768 °C,0.857
same,"Thermofluor FLuc, No ATP",55.762 °C,0.972
same,"Thermofluor FLuc, ATP",55.762 °C,0.903
same,"Thermofluor FLuc, No ATP",56.755 °C,0.954
same,"Thermofluor FLuc, ATP",56.755 °C,0.933
same,"Thermofluor FLuc, No ATP",57.748 °C,0.930
same,"Thermofluor FLuc, ATP",57.748 °C,0.95
same,"Thermofluor FLuc, No ATP",58.742 °C,0.908
same,"Thermofluor FLuc, ATP",58.742 °C,0.958
same,"Thermofluor FLuc, No ATP",59.735 °C,0.892
same,"Thermofluor FLuc, ATP",59.735 °C,0.959
same,"Thermofluor FLuc, No ATP",60.729 °C,0.925
same,"Thermofluor FLuc, ATP",60.729 °C,0.959
same,"Thermofluor FLuc, No ATP",61.722 °C,0.872
same,"Thermofluor FLuc, ATP",61.722 °C,0.958
same,"Thermofluor FLuc, No ATP",62.715 °C,0.877
same,"Thermofluor FLuc, ATP",62.715 °C,0.96
same,"Thermofluor FLuc, No ATP",63.709 °C,0.837
same,"Thermofluor FLuc, ATP",63.709 °C,0.963
same,"Thermofluor FLuc, No ATP",65.695 °C,0.837
same,"Thermofluor FLuc, ATP",65.695 °C,0.975
same,"Thermofluor FLuc, No ATP",66.689 °C,0.789
same,"Thermofluor FLuc, ATP",66.689 °C,0.981
same,"Thermofluor FLuc, No ATP",68.676 °C,0.772
same,"Thermofluor FLuc, ATP",68.676 °C,0.992
same,"Thermofluor FLuc, No ATP",69.669 °C,0.774
same,"Thermofluor FLuc, ATP",69.669 °C,0.996
same,"Thermofluor FLuc, No ATP",70.662 °C,0.720
same,"Thermofluor FLuc, ATP",70.662 °C,0.998
same,"Thermofluor FLuc, No ATP",71.656 °C,0.708
same,"Thermofluor FLuc, ATP",71.656 °C,0.999
same,"Thermofluor FLuc, No ATP",72.649 °C,0.718
same,"Thermofluor FLuc, ATP",72.649 °C,0.999
same,"Thermofluor FLuc, No ATP",73.643 °C,0.669
same,"Thermofluor FLuc, ATP",73.643 °C,0.998
same,"Thermofluor FLuc, No ATP",74.636 °C,0.675
same,"Thermofluor FLuc, ATP",74.636 °C,0.997
same,"Thermofluor FLuc, No ATP",75.629 °C,0.640
same,"Thermofluor FLuc, ATP",75.629 °C,0.995
